According to paper PMC10945559, “Forgotten Natural Products: Semisynthetic Development of Blasticidin S As an Antibiotic Lead” (ACS Medicinal Chemistry Letters, 2024):
≈ marks a conversion by molar mass, not a printed value. Where two headings read alike, the source gives them in different places.

What was measured:
in vitro = type: cell-based, human; details: human; MRC-5 (lung fibroblast); 24 h; one biological replicate (n = 3); read-out: CC50 for human cells
Protocol: (§1) as a range from biological replicates. Inhibition curves were generated using Prism (GraphPad).
(§2) The IC50 values reported in Table 2 are the average of the two biological replicates ± standard […]
(§3) Cytotoxicity Assay Procedure
(§4) Human lung fibroblast cells, MRC -5 (CCL-171), were cultured at 37℃ with 5% CO2 and were plated at 5000 cells/well in a 96 -well plate. Compounds 1, 2, and 15-22 were initially prepared at concentrations of 5.12 mg/mL in a vehicle of 50% DMSO. Dilutions of the compounds (4 – 512 μg/mL) were then prepared in growth medium containing Dulbecco’s modified Eagle’s medium (DMEM) with high glucose, L -glutamine, and sodium pyruvate supplemented with 10% fetal bovine serum (FBS), 1% non -essential amino acids, and 0.1% gentamicin sulfate, and 25mM HEPES. The vehicle (50% DMSO) was also prepared via the sa me dilution series to serve as a control. Growth media was removed from the cells and replaced with the same volume of each compound dilution. Cells were incubated for 24 h , after which CellTiter 96® AQueous One Solution Reagent was added to each well as recommended by the manufacturer’s protocol (Promega CellTiter 96 AQueous One Solution Cell Proliferation Assay) and further incubated for 4 h. After incubation, absorbance was measured at 490 nm on an Infinite M plex multimode microplate reader with i -control Tecan software. Viability was calculated by subtracting media only absorbance values and normalizing to the vehicle control at each concentration. The presented data is one assay performed in triplicate that is representative of multiple trials. Data for the 256 and 512 μg/mL concentrations were removed from analysis due to vehicle toxicity […]
(§5) CC50 concentrations were determined via the ED50 Plus v1.0 software (https://archive.org/details/ed50v10_zip).
Figure S41. The effect of compounds on cell viability. The lines represent non -linear regression curves, and error bars represent means ± […]
SD (n=3). […]

S. aureus 8810 = experiment: Broth microdilution antibacterial assay; type: cell-based, Staphylococcus aureus; details: for Selectivity index (CC50/IC50): MRC-5 CC50 / S. aureus IC50
Protocol: (§6) Antibacterial Assay Procedure
(§7) Broth Microdilution Assays
(§8) Media and solutions were autoclaved or sterile filtered prior to use and manipulations were carried out in a laminar flow hood. Antibacterial testing was performed in polypropylene 96 -well flat bottom plates. The minimal inhibitory concentration of blasticidin S ( 1) hydrochloride, P10 (2), and derivatives 15–22 were assessed against Staphylococcus aureus ΔNorA, S. aureus 8810, methicillin-resistant S. aureus (MRSA) ATCC 43300, Enterococcus faecalis ATCC 29212, vancomycin-resistant Enterococcus, Klebsiella pneumoniae ATCC 29665, Pseudomonas aeruginosa, and Acinetobacter baumannii ATCC 17978 using serial dilutions. Doxycycline (Gold Bio) as a positive control and the vehicle as a negative control. Stock solutions of each compound were prepared at 5.12 mg/mL in 50% DMSO/water and serially diluted in 50% DMSO/water to create master plates. From the master plates, 10 μL of each dilution was applied to test plates using a Bravo automated liquid transfer system (Agilent). Bacteria previously grown overnight (37 °C, 120 – 200 RPM), in LB broth were diluted to an OD600 of 0.0 5 in cation-adjusted Mueller-Hinton broth, grown to an OD600 of ~0.5, and diluted to an OD600 of 0.004 in cation-adjusted Mueller-Hinton broth. These diluted cultures were applied to the test plates (190 μL per test well) resulting in final concentrations of the test compounds of 256–2 μg/mL. Growth controls (wells with inoculated media but no vehicle or test compounds) were included to assess any potential toxicity from the vehicle. The plates were incubated at 37 °C for 16–18 h, except for VRE and E. faecalis, which were incubated at 37 °C for 24 h. Inhibition was determined by measuring the optical density at 600 nm (OD600) with a Cytation 3 plate reader (BioTek). The optical density measurements were normalized to the positive and negative controls and the vehicle and growth controls were compared and found to be indistinguishable, indicating no toxicity from the vehicle used. The MIC was the lowest concentration that inhibited >90% of growth. Two biological replicates were performed in duplicate. MIC values are reported […]
as §1, §2, §3, §4, §5

[1] = system: methicillin-resistant S. aureus (MRSA) ATCC 43300; experiment: Broth microdilution antibacterial assay; type: cell-based, Staphylococcus aureus; details: for Selectivity index (CC50/IC50): MRC-5 CC50 / MRSA IC50; for IC50 / MIC: Staphylococcus aureus
Protocol: as §6, §7, §8, §1, §2, §3, §4, §5

[2] = system: Klebsiella pneumoniae ATCC 29665; experiment: Broth microdilution antibacterial assay; type: cell-based; details: for IC50 / MIC: Klebsiella pneumoniae, ATCC29665; for Selectivity index (CC50/IC50): MRC-5 CC50 / K. pneumoniae IC50
Protocol: as §6, §7, §8, §1, §2, §3, §4, §5

Pseudomonas aeruginosa = experiment: Broth microdilution antibacterial assay; type: cell-based; details: for Selectivity index (CC50/IC50): MRC-5 CC50 / P. aeruginosa IC50; for IC50 / MIC: Pseudomonas aeruginosa
Protocol: as §6, §7, §8, §1, §2, §3, §4, §5

[3] = system: vancomycin-resistant Enterococcus (VRE); experiment: Broth microdilution antibacterial assay; type: cell-based; details: for IC50 / MIC: Enterococcus, VRE; for Selectivity index (CC50/IC50): MRC-5 CC50 / VRE IC50
Protocol: as §6, §7, §8, §1, §2, §3, §4, §5

[4] = system: Acinetobacter baumannii ATCC 17978; experiment: Broth microdilution antibacterial assay; type: cell-based; details: for IC50 / MIC: Acinetobacter baumannii, ATCC17978; for Selectivity index (CC50/IC50): MRC-5 CC50 / A. baumannii IC50
Protocol: as §6, §7, §8, §1, §2, §3, §4, §5

[5] = system: Enterococcus faecalis ATCC 29212; experiment: Broth microdilution antibacterial assay; type: cell-based; details: for IC50 / MIC: Enterococcus faecalis; for Selectivity index (CC50/IC50): MRC-5 CC50 / E. faecalis IC50
Protocol: as §6, §7, §8, §1, §2, §3, §4, §5

[6] = system: Staphylococcus aureus ΔNorA; experiment: Broth microdilution antibacterial assay; type: cell-based; details: for Selectivity index (CC50/IC50): MRC-5 CC50 / S. aureus ΔNorA IC50; for IC50 / MIC: Staphylococcus aureus
Protocol: as §6, §7, §8, §1, §2, §3, §4, §5

CCCNC(=O)[C@H]1O[C@@H](n2ccc(N)nc2=O)C=C[C@@H]1NC(=O)C[C@@H](N)CCN(C)C(=N)N [Compound 17]
CC50 at 24 h (in vitro): 61.1 µg/mL (≈ 132 µM) | Selectivity index (CC50/IC50) (S. aureus 8810): 16 | IC50 (S. aureus 8810; Staphylococcus aureus, 8810): 3.9 ± 0.1 µg/mL (≈ 8.41 µM) | MIC (S. aureus 8810; Staphylococcus aureus, 8810): 16 to 32 µg/mL (≈ 34.5 to 69 µM) | MIC (S. aureus 8810; Staphylococcus aureus, 8810, read-out: Average Activity against S. aureus): 24 µg/mL (≈ 51.8 µM) | Selectivity index (CC50/IC50) [1]: 8.1 | IC50 [1]: 7.6 ± 0.8 µg/mL (≈ 16.4 µM) | MIC [1]: 16 to 32 µg/mL (≈ 34.5 to 69 µM) | MIC ([1]; read-out: Average Activity against MRSA): 24 µg/mL (≈ 51.8 µM) | IC50 [2]: 44.9 ± 3.2 µg/mL (≈ 96.9 µM) | MIC [2]: 128 to 256 µg/mL (≈ 276 to 552 µM) | Selectivity index (CC50/IC50) [2]: 1.4 | Selectivity index (CC50/IC50) (Pseudomonas aeruginosa): 3.2 | IC50 (Pseudomonas aeruginosa): 19.3 ± 1.6 µg/mL (≈ 41.6 µM) | MIC (Pseudomonas aeruginosa): 64 µg/mL (≈ 138 µM) | IC50 [3]: 16.8 ± 3.1 µg/mL (≈ 36.2 µM) | MIC ([3]; 24 h): 64 µg/mL (≈ 138 µM) | MIC ([3]; read-out: Average Activity against VRE): 64 µg/mL (≈ 138 µM) | Selectivity index (CC50/IC50) [3]: 3.6 | IC50 [4]: 39.3 ± 1.9 µg/mL (≈ 84.8 µM) | MIC [4]: > 256 µg/mL | Selectivity index (CC50/IC50) [4]: 1.6 | IC50 ([5]; ATCC29212): 9.3 ± 1.7 µg/mL (≈ 20.1 µM) | MIC ([5]; ATCC29212, 24 h): 16 to 32 µg/mL (≈ 34.5 to 69 µM) | MIC ([5]; ATCC29212, read-out: Average Activity against E. faecalis): 16 µg/mL (≈ 34.5 µM) | Selectivity index (CC50/IC50) [5]: 6.6 | Selectivity index (CC50/IC50) [6]: 3.9 | IC50 [6]: 15.8 ± 1.1 µg/mL (≈ 34.1 µM) | MIC [6]: 64 to 128 µg/mL (≈ 138 to 276 µM)

CN(CC[C@H](N)CC(=O)N[C@H]1C=C[C@H](n2ccc(N)nc2=O)O[C@@H]1C(=O)NCCO)C(=N)N [Compound 21]
CC50 at 24 h (in vitro): 58.1 µg/mL (≈ 125 µM) | Selectivity index (CC50/IC50) (S. aureus 8810): 7.1 | IC50 (S. aureus 8810; Staphylococcus aureus, 8810, S. aureus, average of two biological replicates ± S.D., read-out: IC50): 8.1 ± 0.7 µg/mL (≈ 17.4 µM) | MIC (S. aureus 8810; Staphylococcus aureus, 8810, S. aureus, lowest concentration inhibiting >90% of growth, range from biological replicates, read-out: MIC): 64 µg/mL (≈ 137 µM) | MIC (S. aureus 8810; Staphylococcus aureus, 8810, average MIC, Table S3, read-out: Average Activity against S. aureus): 64 µg/mL (≈ 137 µM) | Selectivity index (CC50/IC50) [1]: 4.9 | IC50 ([1]; MRSA, average of two biological replicates ± S.D., read-out: IC50): 11.8 ± 0.2 µg/mL (≈ 25.3 µM) | MIC ([1]; MRSA, lowest concentration inhibiting >90% of growth, range from biological replicates, read-out: MIC): 32 to 64 µg/mL (≈ 68.7 to 137 µM) | MIC ([1]; average MIC, Table S3, read-out: Average Activity against MRSA): 48 µg/mL (≈ 103 µM) | IC50 ([2]; K. pneumoniae, average of two biological replicates ± S.D., read-out: IC50): 19.7 ± 0.5 µg/mL (≈ 42.3 µM) | MIC ([2]; K. pneumoniae, lowest concentration inhibiting >90% of growth, range from biological replicates, read-out: MIC): 64 µg/mL (≈ 137 µM) | Selectivity index (CC50/IC50) [2]: 3.0 | Selectivity index (CC50/IC50) (Pseudomonas aeruginosa): 1.7 | IC50 (Pseudomonas aeruginosa; P. aeruginosa, average of two biological replicates ± S.D., read-out: IC50): 34.1 ± 0.3 µg/mL (≈ 73.3 µM) | MIC (Pseudomonas aeruginosa; P. aeruginosa, lowest concentration inhibiting >90% of growth, range from biological replicates, read-out: MIC): 128 µg/mL (≈ 275 µM) | MIC ([3]; average MIC, Table S3, read-out: Average Activity against VRE): 128 µg/mL (≈ 275 µM) | MIC ([3]; 24 h, lowest concentration inhibiting >90% of growth, range from biological replicates, read-out: MIC): 128 µg/mL (≈ 275 µM) | IC50 ([3]; average of two biological replicates ± S.D., read-out: IC50): 15.3 ± 3.3 µg/mL (≈ 32.9 µM) | Selectivity index (CC50/IC50) [3]: 3.8 | IC50 ([4]; A. baumannii, average of two biological replicates ± S.D., read-out: IC50): 21.2 ± 0.6 µg/mL (≈ 45.5 µM) | MIC ([4]; A. baumannii, lowest concentration inhibiting >90% of growth, range from biological replicates, read-out: MIC): 64 to 128 µg/mL (≈ 137 to 275 µM) | Selectivity index (CC50/IC50) [4]: 2.7 | MIC ([5]; ATCC29212, E. faecalis, 24 h, lowest concentration inhibiting >90% of growth, range from biological replicates, read-out: MIC): 32 µg/mL (≈ 68.7 µM) | IC50 ([5]; ATCC29212, E. faecalis, average of two biological replicates ± S.D. (18: one biological replicate), read-out: IC50): 22.3 ± 4 µg/mL (≈ 47.9 µM) | MIC ([5]; ATCC29212, average MIC, Table S3, read-out: Average Activity against E. faecalis): 32 µg/mL (≈ 68.7 µM) | Selectivity index (CC50/IC50) [5]: 2.6 | Selectivity index (CC50/IC50) [6]: 1.6 | IC50 [6]: 35.5 ± 2.5 µg/mL (≈ 76.3 µM) | MIC [6]: 256 µg/mL (≈ 550 µM)
